Tests used:
[1] = test system: induction of TAT by dexamethasone in HepG2 cells; assay: Hep G2 TAT assay (inhibition of dexamethasone-induced TAT); type: cell-based, human; conditions: agonist induction of TAT, read-out: average EC50 value (half-maximal effect) of TAT production
[2] = target: glucocorticoid receptor (GR) recombinant ligand binding domain (LBD) (Homo sapiens (Human), UniProt P04150); assay: GR binding fluorescence polarisation (FP) assay; conditions: displacement of fluorescently tagged ligand
Chain of glucocorticoid receptor (GR) recombinant ligand binding domain (LBD) (P04150 524-758): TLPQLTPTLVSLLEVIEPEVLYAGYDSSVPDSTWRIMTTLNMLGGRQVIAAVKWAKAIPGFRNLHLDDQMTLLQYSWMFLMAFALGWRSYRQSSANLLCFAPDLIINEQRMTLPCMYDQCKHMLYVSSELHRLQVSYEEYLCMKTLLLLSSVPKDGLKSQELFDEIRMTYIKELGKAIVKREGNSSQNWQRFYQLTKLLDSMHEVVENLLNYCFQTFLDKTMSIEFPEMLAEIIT
Description: Binding of test compounds to the glucocorticoid receptor (GR) is determined using a fluorescence polarisation (FP) assay utilising a recombinant ligand binding domain (LBD) of GR. The test compounds are assessed by their ability to displace a fluorescently tagged ligand and detection of the resulting decrease in fluorescence polarisation.

[3] = test system: induction of TAT by dexamethasone in HepG2 cells; assay: Hep G2 TAT assay (inhibition of dexamethasone-induced TAT); type: cell-based, human; conditions: challenge of 100 nM dexamethasone, IC50 converted to Ki by Cheng and Prusoff equation

## C[C@@H]1C[C@H]2[C@@H]3CCC4=CC(=O)C=C[C@]4(C)[C@@]3(F)[C@@H](O)C[C@]2(C)[C@@]1(O)C(=O)CO [Dexamethasone, dexamethasone]
[1]
  EC50: 20 nM

## Cc1cc2c(cnn2-c2ccc(=O)n(C)c2)cc1C1(Cc2ccccc2)CCN(S(=O)(=O)c2cc(F)ccc2F)C1 (centres unmarked) [Example 316, 5-(5-(3-benzyl-1-((2,5-difluorophenyl)sulfonyl)pyrrolidin-3-yl)-6-methyl-1H-indazol-1-yl)-1-methylpyridin-2(1H)-one]
[2]
  IC50: 12 nM
[3]
  Ki: 32 nM

## Cc1cc2c(cnn2-c2ccc(=O)n(C)c2)cc1C1(Cc2ccccc2)CCN(S(=O)(=O)c2cccc(F)c2F)C1 (centres unmarked) [Example 317, 5-(5-(3-benzyl-1-((2,3-difluorophenyl)sulfonyl)pyrrolidin-3-yl)-6-methyl-1H-indazol-1-yl)-1-methylpyridin-2(1H)-one]
[2]
  IC50: 8.9 nM
[3]
  Ki: 23 nM

## CCCn1cc(S(=O)(=O)N2CCC(Cc3ccccc3)(c3cc4cnn(-c5ccc(=O)n(C)c5)c4cc3C)C2)cn1 (centres unmarked) [Example 318, 5-(5-(3-benzyl-1-((1-propyl-1H-pyrazol-4-yl)sulfonyl)pyrrolidin-3-yl)-6-methyl-1H-indazol-1-yl)-1-methylpyridin-2(1H)-one]
[2]
  IC50: 5.1 nM
[3]
  Ki: 48 nM

## COc1cc2c(cnn2-c2ccc(=O)n(C)c2)cc1C1(Cc2ccccc2)CCN(S(=O)(=O)C2CC2)C1 (centres unmarked) [Example 321]
[2]
  IC50: 14 nM
[3]
  Ki: 270 nM

## Cc1ncc(S(=O)(=O)N2CCC(Cc3ccccc3)(c3cc4cnn(-c5ccc(=O)n(C)c5)c4cc3C)C2)cn1 (centres unmarked) [Example 322, 5-(5-(3-benzyl-1-((2-methylpyrimidin-5-yl)sulfonyl)pyrrolidin-3-yl)-6-methyl-1H-indazol-1-yl)-1-methylpyridin-2(1H)-one]
[2]
  IC50: 24 nM
[3]
  Ki: 77 nM

## Cc1cc2c(cnn2-c2ccc(=O)n(C)c2)cc1C1(Cc2ccc(F)cc2)CCN(S(=O)(=O)c2cnn(C)c2)C1 (centres unmarked) [Example 323, 5-(5-(3-(4-fluorobenzyl)-1-((1-methyl-1H-pyrazol-4-yl)sulfonyl)pyrrolidin-3-yl)-6-methyl-1H-indazol-1-yl)-1-methylpyridin-2(1H)-one]
[2]
  IC50: 12 nM
[3]
  Ki: 97 nM

## Cc1cc2c(cnn2-c2ccc(=O)n(C)c2)cc1C1(Cc2ccc(F)cc2)CCN(S(=O)(=O)c2cnn(C)n2)C1 (centres unmarked) [Example 324, 5-(5-(3-(4-fluorobenzyl)-1-((2-methyl-2H-1,2,3-triazol-4-yl)sulfonyl)pyrrolidin-3-yl)-6-methyl-1H-indazol-1-yl)-1-methylpyridin-2(1H)-one]
[2]
  IC50: 7.5 nM
[3]
  Ki: 64 nM

## CC(=O)N1CCC(S(=O)(=O)N2CCC(Cc3ccccc3)(c3cc4cnn(-c5ccc(F)cc5)c4cc3C)C2)CC1 (centres unmarked) [Example 325, 1-(4-((3-benzyl-3-(1-(4-fluorophenyl)-6-methyl-1H-indazol-5-yl)pyrrolidin-1-yl)sulfonyl)piperidin-1-yl)ethan-1-one]
[2]
  IC50: 28 nM
[3]
  Ki: 110 nM

## Cc1cc2c(cnn2-c2ccc(=O)n(C)c2)cc1C1(Cc2ccccc2)CCN(C(=O)c2ccccc2)C1 (centres unmarked) [Example 326, 5-(5-(1-benzoyl-3-benzylpyrrolidin-3-yl)-6-methyl-1H-indazol-1-yl)-1-methylpyridin-2(1H)-one]
[2]
  IC50: 44 nM
[3]
  Ki: 57 nM

## Cc1cc2c(cnn2-c2ccc(=O)n(C)c2)cc1C1(Cc2ccccc2)CCN(C(=O)c2ccnnc2)C1 (centres unmarked) [Example 327, 5-(5-(3-benzyl-1-(pyridazine-4-carbonyl)pyrrolidin-3-yl)-6-methyl-1H-indazol-1-yl)-1-methylpyridin-2(1H)-one]
[2]
  IC50: 170 nM
[3]
  Ki: 540 nM

## Cc1cc2c(cnn2-c2ccc(=O)n(C)c2)cc1C1(Cc2ccccc2)CCN(C(=O)C(C)(F)F)C1 (centres unmarked) [Example 328, 5-(5-(3-benzyl-1-(2,2-difluoropropanoyl)pyrrolidin-3-yl)-6-methyl-1H-indazol-1-yl)-1-methylpyridin-2(1H)-one]
[2]
  IC50: 18 nM
[3]
  Ki: 110 nM

## Cc1cc2c(cnn2-c2ccc(=O)n(C)c2)cc1C1(Cc2ccccc2)CCN(C(=O)c2ccsc2)C1 (centres unmarked) [Example 329, 5-(5-(3-benzyl-1-(thiophene-3-carbonyl)pyrrolidin-3-yl)-6-methyl-1H-indazol-1-yl)-1-methylpyridin-2(1H)-one]
[2]
  IC50: 10 nM
[3]
  Ki: 140 nM

## Cc1cc2c(cnn2-c2ccc(=O)n(C)c2)cc1C1(Cc2ccccc2)CCN(C(=O)C2(C(F)(F)F)CC2)C1 (centres unmarked) [Example 330, 5-(5-(3-benzyl-1-(1-(trifluoromethyl)cyclopropane-1-carbonyl)pyrrolidin-3-yl)-6-methyl-1H-indazol-1-yl)-1-methylpyridin-2(1H)-one]
[2]
  IC50: 16 nM
[3]
  Ki: 200 nM

## Cc1cc2c(cnn2-c2ccc(=O)n(C)c2)cc1C1(Cc2ccccc2)CCN(C(=O)C2CC2C)C1 (centres unmarked) [Example 331, 5-(5-(3-benzyl-1-(2-methylcyclopropane-1-carbonyl)pyrrolidin-3-yl)-6-methyl-1H-indazol-1-yl)-1-methylpyridin-2(1H)-one]
[2]
  IC50: 15 nM
[3]
  Ki: 100 nM

## Cc1cc2c(cnn2-c2ccc(=O)n(C)c2)cc1C1(Cc2ccccc2)CCN(C(=O)C2CC2)C1 (centres unmarked) [Example 332, 5-(5-(3-benzyl-1-(cyclopropanecarbonyl)pyrrolidin-3-yl)-6-methyl-1H-indazol-1-yl)-1-methylpyridin-2(1H)-one]
[2]
  IC50: 20 nM
[3]
  Ki: 160 nM

## Cc1cc2c(cnn2-c2ccc(=O)n(C)c2)cc1C1(Cc2ccccc2)CN(S(=O)(=O)c2cnn(C)n2)CC1C (centres unmarked) [Example 335, 5-(5-(3-benzyl-4-methyl-1-((2-methyl-2H-1,2,3-triazol-4-yl)sulfonyl)pyrrolidin-3-yl)-6-methyl-1H-indazol-1-yl)-1-methylpyridin-2(1H)-one]
[2]
  IC50: 11 nM
[3]
  Ki: 46 nM

## Cc1cc2c(cnn2-c2ccc(F)cc2)cc1C1(Cc2ccccc2)CCN(Cc2ccccc2)C1=O (centres unmarked) [Example 337, 1,3-dibenzyl-3-(1-(4-fluorophenyl)-6-methyl-1H-indazol-5-yl)pyrrolidin-2-one]
[2]
  IC50: 250 nM
[3]
  Ki: 110 nM

## CS(=O)(=O)N1CCC(Cc2ccccc2)(c2ccc3c(cnn3-c3ccc(F)cc3)c2)C1=O (centres unmarked) [Example 338, 3-benzyl-3-(1-(4-fluorophenyl)-1H-indazol-5-yl)-1-(methylsulfonyl)pyrrolidin-2-one]
[2]
  IC50: 26 nM
[3]
  Ki: 120 nM

## Cc1cc2c(cnn2-c2ccc(F)cc2)cc1C1(Cc2ccccc2)CCN(S(C)(=O)=O)C1=O (centres unmarked) [Example 339, 3-benzyl-3-(1-(4-fluorophenyl)-6-methyl-1H-indazol-5-yl)-1-(methylsulfonyl)pyrrolidin-2-one]
[2]
  IC50: 44 nM
[3]
  Ki: 120 nM

## COCC1(c2cc3cnn(-c4ccc(F)cc4)c3cc2C)CCN(S(=O)(=O)c2cnn(C)c2)C1 (centres unmarked) [Example 340, 1-(4-fluorophenyl)-5-(3-(methoxymethyl)-1-((1-methyl-1H-pyrazol-4-yl)sulfonyl)pyrrolidin-3-yl)-6-methyl-1H-indazole]
[2]
  IC50: 57 nM
[3]
  Ki: 820 nM
